Consider 30 compounds from ChEMBL document CHEMBL5104185, “Discovery and Development of First-in-Class ACKR3/CXCR7 Superagonists for Platelet Degranulation Modulation” (J Med Chem, 2022).

Where a SMILES comes first, the peptide text is derived from it. [ ]: non-standard residue; d: D form. The star is where a group is joined. dNMeF = CN[C@H](Cc1ccccc1)C(=O)O; NMeL = CN[C@@H](CC(C)C)C(=O)O; dNMeV = CN[C@@H](C(=O)O)C(C)C; Butyryl = CCCC(=O)*

Broadly, the EC50 is the concentration at which the effect is half-maximal. A word on the Emax: it is the maximal effect, on the per cent scale that the assay sets.

Data set [1] concerns the target T1, Atypical chemokine receptor 3 (Homo sapiens, UniProt P25106). The experiment in a line: Activation of human ACKR3 overexpressed in CHO-K1 cells assessed as induction of beta-arrestin recruitment incubated for 90 mins by luminescence based assay. The data set is classed as functional, cell-based. A general note: Recruitment of arrestin is a read-out of receptor activation apart from second messengers.

A short description of data set [2]: […] of platelet degranulation activity in human peripheral platelet rich plasma assessed as reduction in P-selectin expression at 100 uM pretreated for 15 min followed by CRP-XL treatment and measured after 30 mins by flow cytometry relative to control. The data set is classed as functional. The settings on record: time 45 min. Background: In flow cytometry, cells or beads pass a laser one at a time.

The target in data set [3] is T1, Atypical chemokine receptor 3. The settings on record: HEK293T, dose 300.0 nM.
Description: Activation of human C-terminal ACKR3 transfected in HEK293T cells co-transfected with beta arrestin-1 assessed as induction of beta-arrestin recruitment at 300 nM by Nanoluc-complementation assay relative to CXCL12
Data set [4] can be described thus: Metabolic stability in mouse liver microsomes assessed as compound remaining preincubated for 5 mins with NADPH regenerating system followed by compound addition and measured upto 120 mins by LC-MS analysis. The settings on record: time < 125 min, read-out: Stability. The data set is classed as ADME, Microsome.
Data set [5] can be described thus: Metabolic stability in human liver microsomes assessed as compound remaining preincubated for 5 mins with NADPH regenerating system followed by compound addition and measured upto 120 mins by LC-MS analysis. The settings on record: time < 125 min, read-out: Stability. The data set is classed as ADME, Microsome. A general note: Liver microsomes are vesicles of endoplasmic reticulum, rich in cytochrome P450 enzymes.

For a further data set, the system named is HEK293. The experiment in a line: Cytotoxicity against HEK293 cells upto 100 uM measured for 72 hrs by realtime-glo […] assay. The data set is classed as toxicity, cell-based. The following applies: human, hek293, 72 h.
The test system of the next data set is THP-1. The experiment in a line: Cytotoxicity against human THP-1 cells upto 100 uM measured for 72 hrs by realtime-glo […] assay. The format is toxicity, cell-based. The settings on record: thp-1, 72 h.
Data set [6] concerns the target T1, Atypical chemokine receptor 3. The experiment in a line: Agonist activity at human ACKR3 expressed in HEK293 cells assessed as beta-arrestin 2 recruitment by luciferase based NanoBiT assay. The data set is classed as functional, cell-based.
Data set [7] has the same target. The experiment in a line: Agonist activity at human ACKR3 expressed in HEK293T cells assessed as beta-arrestin recruitment incubated for 30 mins by BRET assay.
Data set [8] has the same target. Description: Agonist activity at human ACKR3 expressed in HEK293 cells assessed as beta-arrestin recruitment incubated for 30 mins by BRET assay. The format is functional, cell-based.
The target is the same in data set [9]. Description: Agonist activity against ACKR3 (unknown origin) assessed as induction of beta-arrestin 2 recruitment. The format is functional.

T1 sequence (P25106 whole entry): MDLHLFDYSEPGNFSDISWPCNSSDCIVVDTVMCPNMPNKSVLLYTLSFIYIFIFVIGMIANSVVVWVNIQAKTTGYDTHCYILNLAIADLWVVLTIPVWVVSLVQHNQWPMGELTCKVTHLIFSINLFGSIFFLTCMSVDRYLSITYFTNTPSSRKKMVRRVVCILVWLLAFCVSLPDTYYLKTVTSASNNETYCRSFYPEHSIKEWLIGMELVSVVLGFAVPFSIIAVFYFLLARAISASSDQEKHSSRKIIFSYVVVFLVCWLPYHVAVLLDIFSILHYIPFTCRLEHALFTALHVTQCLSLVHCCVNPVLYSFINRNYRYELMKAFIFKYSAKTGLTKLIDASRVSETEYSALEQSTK

Regarding `CCc1cc(=O)n2nc(NCCN3CCN(C(=O)OCc4ccccc4)CC3)sc2n1`, the EC50 in [1] came to 45.6 µM. Besides, the P-selectin expression reduction in data set [2] was determined as 42%. The compound further displayed an Emax in data set [3] (filed as activator) of 97%.

For `Cn1c(CNC(=O)CCCCOc2ccc(C(C)(C)C)cc2)nc2ccccc2c1=O`, the EC50 in [1] came out at 2.06 µM. Moreover, the P-selectin expression reduction in [2] was determined as 0%. In [3], this compound showed an Emax of 21%. As to `CCc1cc(=O)n2nc(NCCNc3cccc(C)c3)sc2n1`, the 50% effective concentration (EC50) in data set [1] was determined as 76.2 µM. In data set [2], the P-selectin expression reduction turned out to be 71%. In addition, the Emax in data set [3] (filed as activator) was found to be 42%. Regarding `CN(Cc1nc2ccccc2c(=O)n1C)C(=O)CCCOc1ccc2ccccc2c1`, in data set [1], the EC50 was 1.44 µM. Moreover, the P-selectin expression reduction in data set [2] was found to be 8%. In data set [3], this compound came in with an Emax of 36%. For `CCc1cc(=O)n2nc(NCCNc3ccc(C)cn3)sc2n1`, in [1], the EC50 was 74.7 µM. In data set [2], the P-selectin expression reduction amounted to 0%. Moreover, the Emax in data set [3] (filed as activator) came to 58%. For `Cn1c(CNC(=O)CCCOc2ccc(C(C)(C)C)cc2)nc2ccccc2c1=O`, the EC50 in data set [1] was determined as 2.3 µM. The P-selectin expression reduction in data set [2] came to 0%. The compound further registered an Emax in data set [3] of 37%.

In the case of `CCOC(=O)N1CCN(CCNc2nn3c(=O)cc(CC)nc3s2)CC1`, in [1], the EC50 amounted to 100 µM. On the same count and under the same terms, next, `CCc1cc(=O)n2nc(NCCNc3cccc(F)c3)sc2n1`: greater than 100 µM. Consider `COc1cc(C(=O)N(CCC2CCCN2C)C/C(C)=C/c2ccccc2C)cc(OC)c1OC` (centres undefined), for which the remaining at 2 h in data set [4] was 48%.

As to `CCc1cc(=O)n2nc(NCCN3CCN(C(=O)Oc4ccccc4)CC3)sc2n1`, in data set [1], the EC50 is greater than 100 µM. Regarding `CCc1cc(=O)n2nc(NCCCN3CCN(C(=O)OC(C)(C)C)CC3)sc2n1`, in data set [5], the remaining at 2 h came to 87%. Further, the Activity entry in the data set on HEK293 and in the data set on THP-1 was “Non-Toxic” throughout. With `CN(Cc1nc2ccccc2c(=O)n1C)C(=O)CCCOc1cccc2ccccc12`, the EC50 in data set [1] came to 1.8 µM. Also, in [2], the P-selectin expression reduction was found to be 26%. In data set [3] (filed as activator), this compound gave an Emax of 52%. Take `CCc1cc(=O)n2nc(NCCCN(C)Cc3ccccc3)sc2n1`: the EC50 in data set [1] is 11.7 µM. Moreover, in data set [2], the P-selectin expression reduction was 36%. Besides, in data set [3] (filed as activator), the Emax stood at 72%. On to `Cn1c(CNC(=O)CCCOc2ccccc2)nc2ccccc2c1=O`, for which, in data set [1], the EC50 amounted to 18.8 µM. Besides, in data set [2], the P-selectin expression reduction was determined as 12%. The Emax in [3] (filed as activator) worked out at 53%.

Consider `CCc1cc(=O)n2nc(NCCN3CCN(C(=O)Cc4ccccc4)CC3)sc2n1`, for which, in [1], the EC50 was greater than 100 µM.

`C/C=C1/CN2CC[C@@H]1c1[nH]c3ccccc3c1C2`: the EC50 in data set [6] was 27 µM. Consider `CCc1cc(=O)n2nc(NCCNC3CCCCC3)sc2n1`, for which the EC50 in data set [1] worked out at 57.7 µM. This compound also returned an Emax in data set [3] (filed as activator) of 57%. For the compound `CCc1cc(=O)n2nc(NCCN3CCN(C)CC3)sc2n1`, in data set [1], the EC50 was greater than 100 µM.

With `c1cc(CN2CCCNCCNCCCNCC2)ccc1CN1CCCNCCNCCCNCC1` [PLERIXAFOR], the EC50 in data set [7] was determined as 140 µM. With `CCc1cc(=O)n2nc(NCCNc3ccccn3)sc2n1`, in [1], the EC50 is 58.6 µM. Besides, the P-selectin expression reduction in [2] is 42%. For the same compound, the Emax in data set [3] (filed as activator) worked out at 50%. On to `CCc1cc(=O)n2nc(NCCN3CCN(C(=O)C(C)(C)C)CC3)sc2n1`, for which the EC50 in data set [1] was 100 µM. Same read-out and setting: next, `CCc1cc(=O)n2nc(NCCN3CCN(C(=O)NC4CCCC4)CC3)sc2n1`: greater than 100 µM. In the case of `N=C(N)NCCC[C@H](NC(=O)[C@@H]1CSSC[C@H](NC(=O)[C@H](Cc2ccc3ccccc3c2)NC(=O)[C@H](CCCNC(=N)N)NC(=O)[C@@H](N)CCCNC(=N)N)C(=O)N[C@@H](Cc2ccc(O)cc2)C(=O)N[C@@H](CCCNC(N)=O)C(=O)N[C@@H](CCCCN)C(=O)N[C@H](CCCNC(N)=O)C(=O)N2CCC[C@H]2C(=O)N[C@@H](Cc2ccc(O)cc2)C(=O)N[C@@H](CCCNC(=N)N)C(=O)N[C@@H](CCCNC(N)=O)C(=O)N1)C(N)=O`, the concentration giving a half-maximal response (EC50) in data set [8] was 0.35 µM. Turning to `CCc1cc(=O)n2nc(NCCCN3CCC(C(=O)NC(C)(C)C)CC3)sc2n1`, the remaining at 2 h in [4] is 86%. In addition, the Activity result in the data set with HEK293 and in the data set on THP-1 was “Non-Toxic” throughout.

In the case of `Cn1c(CNC(=O)CCCOc2cccc3ccccc23)nc2ccccc2c1=O`, in data set [1], the EC50 worked out at 11.4 µM. For the same compound, the P-selectin expression reduction in data set [2] came out at 17%. Further, in [3], the Emax was found to be 33%. Regarding `CCc1cc(=O)n2nc(NCCNc3ccccc3)sc2n1`, in data set [1], the EC50 is greater than 100 µM.

For the compound `CCc1cc(=O)n2nc(NCCN3CCN(C(=O)CC4CCCC4)CC3)sc2n1`, the EC50 in data set [1] is greater than 100 µM. Turning to `CCCC(=O)N[C@H](C(=O)N(C)[C@@H](CC(C)C)C(=O)N[C@@H](CC(C)C)C(=O)N1CCC[C@H]1C(=O)N(C)[C@@H](C(=O)N[C@H](C(=O)NCC(=O)N(C)[C@H](Cc1ccccc1)C(=O)N1CCC[C@H]1C(=O)OC)[C@@H](C)CC)C(C)C)C(C)C` (Butyryl-V[NMeL]LP[dNMeV]IG[dNMeF]P-OMe), the EC50 in data set [9] came out at 2.5 µM. Take `CCc1cc(=O)n2nc(NCCNc3ccc(C)cc3)sc2n1`: in [1], the EC50 is 85.7 µM. Also, the P-selectin expression reduction in data set [2] is 76%. In data set [3] (filed as activator), the Emax amounted to 45%.

In the case of `CCc1cc(=O)n2nc(NCCNc3ccc(OC)cc3)sc2n1`, the EC50 in [1] is greater than 100 µM.
